Like-named read-outs stand apart in the source and are kept apart here. No end group written: not given here.
Key:
[1] = stabilizing effect of other amino acids upon thymopentin in aqueous formulation
Protocol: To the peptide solution is added a sufficient amount of glycine to stabilize the solution.

[2] = immunostimulation in laboratory animals, injectable aqueous formulation; assay type: in vivo; conditions: injectable aqueous formulation prepared immediately prior to use
Protocol: (§1) In experiments with thymopentin, it was observed that the optimal doses of thymopentin in an injectable aqueous formulation for immunostimulation in laboratory animals was about 1 μg/kg of body weight. For laboratory use, these dosages were prepared immediately prior to use.

[3] = human clinical research, clinical pharmacological result; assay type: in vivo; conditions: patients
Protocol: as §1

Molecule | stabilizing effect upon thymopentin [1] | also measured
NCCCC[C@H](N)C(=O)O [lysine] | do not exert the stabilizing effect | –
RKDVY [thymopentin] | – | optimal dose for immunostimulation [2]: about 1 μg/kg of body weight; dose required to produce a clinical pharmacological result [3]: ≥ 1 mg/kg body weight
N[C@@H](CC(=O)O)C(=O)O [aspartic acid] | do not exert the stabilizing effect | –
N=C(N)NCCC[C@H](N)C(=O)O [arginine] | do not exert the stabilizing effect | –
N[C@@H](CCC(=O)O)C(=O)O [glutamic acid] | – | stabilizing effect upon thymopentin ([1]; amino acid in place of glycine): do not exert the stabilizing effect
C[C@H](N)C(=O)O [alanine] | do not exert the stabilizing effect | –

More lines, main results first:

stabilizing effect upon thymopentin [1] | Molecule | also measured
do not exert the stabilizing effect | N[C@@H](Cc1ccc(O)cc1)C(=O)O [tyrosine] | –
do not exert the stabilizing effect | N[C@@H](Cc1c[nH]c2ccccc12)C(=O)O [tryptophan] | –
do not exert the stabilizing effect | O=C(O)[C@@H]1CCCN1 [proline] | –
do not exert the stabilizing effect | N[C@@H](Cc1c[nH]cn1)C(=O)O [histidine] | –
